Measured values taken from patent publication US10894777B2, “TG2 inhibitor piperazine compounds and uses thereof” (UNIVERSITY OF OTTAWA, priority 2016, dated 2021).

Key:
[1] = target: T1, TG2 (Homo sapiens, UniProt P21980); assay: In situ TG2 transamidase activity (FC incorporation), HaCaT cells; type: cell-based; design: endogenous in cells
T1 sequence (P21980 1-687): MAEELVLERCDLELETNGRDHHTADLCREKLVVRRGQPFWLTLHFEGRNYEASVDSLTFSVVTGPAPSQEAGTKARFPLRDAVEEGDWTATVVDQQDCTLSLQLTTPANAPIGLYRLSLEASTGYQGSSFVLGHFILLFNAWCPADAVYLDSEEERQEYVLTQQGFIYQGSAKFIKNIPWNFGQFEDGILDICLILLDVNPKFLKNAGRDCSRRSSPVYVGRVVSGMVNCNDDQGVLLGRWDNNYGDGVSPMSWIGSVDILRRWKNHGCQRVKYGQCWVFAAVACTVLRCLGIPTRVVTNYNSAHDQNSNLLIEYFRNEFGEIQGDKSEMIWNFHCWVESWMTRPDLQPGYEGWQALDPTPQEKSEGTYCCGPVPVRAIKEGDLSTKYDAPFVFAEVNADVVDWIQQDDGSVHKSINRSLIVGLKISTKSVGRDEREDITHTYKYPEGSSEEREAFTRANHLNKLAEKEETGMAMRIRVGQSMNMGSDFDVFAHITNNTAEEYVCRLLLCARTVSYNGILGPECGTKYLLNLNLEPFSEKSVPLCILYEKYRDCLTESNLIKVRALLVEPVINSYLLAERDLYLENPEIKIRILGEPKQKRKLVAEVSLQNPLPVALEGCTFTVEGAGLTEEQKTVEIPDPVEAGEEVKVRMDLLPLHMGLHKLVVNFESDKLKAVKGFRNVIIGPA
Procedure: HaCaT cells were electroporated with mCer-TG2 or mCer-TG2-YAP and then treated with 0 or 5 μM of the indicated inhibitor and fluorescent lifetime was monitored. […] HaCaT cells were preloaded with fluorescein cadaverine, treated with the indicated inhibitor and then challenged with calcium ionophore, washed and assayed for FC incorporation. […] HaCaT were incubated for 48 h with the indicated inhibitor and extracts were prepared and incubated with GTP-agarose beads to measure TG2 binding to GTP agarose. The beads were then washed, boiled in Laemmli buffer and electrophoresed for immunoblot detection of TG2. Cell equivalent quantities of total and bound samples were electrophoresed to facilitate comparison of GTP bound versus total. […] Experiments were performed as described in FIGS. 31 (F) and (G).
In situ TG2 transamidase activity assay. Cells (40,000) were plated in 24-well attachment dishes in spheroid media and grown until 50% confluent. FC was added in 2 ml of serum-free medium at a final concentration of 20 μM and incubated for 4 h. […] After 30 min, the wells were supplemented with 10 NM A23187, a calcium ionophore.

[2] = system: HaCaT cells; assay: Spheroid formation assay, HaCaT cells; type: cell-based, human; details: 20 μM, 48 h
Procedure: Spheroid formation assay. Spheroid formation assays were as reported previously (Adhikary, G. et al., PLoS One 8:e84324, 2013), except that the spheroids were grown in 6-well ultralow attachment Costar cluster dishes (Corning).

[3] = system: rat primary cortical neurons; assay: Neuronal viability by resazurin assay; type: cell-based; details: 24 h
Procedure: DMSO was used as a control. At the end of the treatment, neuronal viability was measured by resazurin assay. Results are shown as a percent of DMSO control (±SEM) (N=3).

[4] = target: T1, TG2; assay: BODIPY FL GTP-γ-S binding assay; details: NC9 120 μM, VA4 40 μM, VA5 40 μM; plus 0.5 mM CaCl2; 1 μM GTP-γ-S FL BODIPY
Procedure: BODIPY FL GTP-γ-S binding assay. GTP binding was performed using a similar method as reported previously (McEwen, D. P. et al., Anal. […] TG2 (9 μg) was incubated with BODIPY GTP-γ-S at 25° C. for 10 min in 100 mM MOPS (pH=7.0) and 5 mM MgCl2 followed by addition of H2O, inhibitor alone or inhibitor plus 0.5 mM CaCl2. […] After 45 min incubation, fluorescence was then measured on a microplate reader (ex: 490 nm, em: 520 nm).

[5] = system: TS543 neurospheres; assay: Neurosphere growth, TS543 (mesenchymal); type: cell-based, human; details: 25 μM, 2 weeks
Source text: Neurosphere cultures. TS543, TS565 and TS676, which represent the mesenchymal, proneural and classical glioblastoma subtypes respectively, based on transcriptomic and genomic analysis, were obtained from C. Brennan through the Monoclonal Antibody Core Facility at Memorial Sloan Kettering Cancer Center (Brennan, C. et al., PLoS One 4(11):e7752, 2009; Pyonteck, S. M. et al., Nature Med. 19(10):1264-72, 2013; Rohle, D. et al., Science 340(6132):626-30, 2013) and maintained in NeuroCult™ NS-A Proliferation Kit (Human) (Stem Cell Technologies) according to manufacturer's instructions. (NeuroCult Medium was supplemented with 20 ng/mL FGF, 50 ng/mL EGF and 0.0002% Heparin). To prevent neurosphere attachment to the bottom of the cell culture plates, Poly 2-hydroxyethyl methacrylate (PHM) was used. 6-well plates were coated with 1 mL/well of 1% PHM in ethanol (w/v). The plates were air dried in a sterile environment overnight and washed once with PBS and they were kept in the fridge in a sterile environment until use. For passaging, neurospheres were triturated according to instructions and 5,000 cells were seeded in each well in 2 mL medium. For treatments with TG2 inhibitors, cells were inoculated in medium containing 25 μM TG2 inhibitor or DMSO control. 200 μL of medium containing the 25 μM TG2 inhibitor or DMSO was added every other day. At the end of 2 weeks, 20-50 random microscopic images were captured for each group. The average volume of each sphere image was determined using Image J by a person blinded for neurosphere lines and treatments and volumes were calculated from the area data and used for comparison.

Structure (SMILES) | TG2 transamidase activity (FC incorporation) [1] | ECS cell spheroid formation [2] | neuronal viability / tolerability [3] | GTP binding to TG2 [4] | sphere growth, TS543 [5]
C=CC(=O)NCCCC[C@H](NC(=O)OCc1ccccc1)C(=O)NCCOCCOCCNS(=O)(=O)c1cccc2c(N(C)C)cccc12 [NC9] | suppressed TG2 transamidase activity | suppressed | well tolerated up to 10 μM concentration | inhibit GTP binding to TG2 almost completely | suppressed sphere growth
C=CC(=O)NCCCC[C@H](NC(=O)OCc1ccccc1)C(=O)N1CCN(S(=O)(=O)c2cccc3c(N(C)C)cccc23)CC1 [VA4, (S)-benzyl(6-acrylamido-1-(4-((5-(dimethylamino)naphthalen-1-yl)sulfonyl)piperazin-1-yl)-1-oxohexan-2-yl)carbamate] | suppressed TG2 transamidase activity | suppressed | well tolerated up to 10 μM concentration | inhibit GTP binding to TG2 almost completely | suppressed sphere growth
C=CC(=O)NCCCC[C@H](NC(=O)OCc1ccccc1)C(=O)N1CCN(C(=O)c2cc3ccc(O)cc3oc2=O)CC1 [VA5, (S)-Benzyl(6-acrylamido-1-(4-(7-hydroxy-2-oxo-2H-chromene-3-carbonyl)piperazin-1-yl)-1-oxohexan-2-yl)carbamate] | suppressed TG2 transamidase activity | suppressed | well tolerated up to 10 μM concentration | inhibit GTP binding to TG2 almost completely | promoted growth
